Several values for one entry are separate records, joined by “and”; a condition that tells them apart may be missing. Equal entries are not always repeated.

In data set [1] the target is T1, plasma membrane H^+-ATPase hexamer, free (small MAS, Peak 2) (Kluyveromyces lactis, UniProt P49380).
T1 construct: gene PMA1; Superose 6 Peak 2, mainly free hexamers with minor monomer, dimer, tetramer; monomer ~100 kDa; no tag
T1 sequence (P49380 1-899): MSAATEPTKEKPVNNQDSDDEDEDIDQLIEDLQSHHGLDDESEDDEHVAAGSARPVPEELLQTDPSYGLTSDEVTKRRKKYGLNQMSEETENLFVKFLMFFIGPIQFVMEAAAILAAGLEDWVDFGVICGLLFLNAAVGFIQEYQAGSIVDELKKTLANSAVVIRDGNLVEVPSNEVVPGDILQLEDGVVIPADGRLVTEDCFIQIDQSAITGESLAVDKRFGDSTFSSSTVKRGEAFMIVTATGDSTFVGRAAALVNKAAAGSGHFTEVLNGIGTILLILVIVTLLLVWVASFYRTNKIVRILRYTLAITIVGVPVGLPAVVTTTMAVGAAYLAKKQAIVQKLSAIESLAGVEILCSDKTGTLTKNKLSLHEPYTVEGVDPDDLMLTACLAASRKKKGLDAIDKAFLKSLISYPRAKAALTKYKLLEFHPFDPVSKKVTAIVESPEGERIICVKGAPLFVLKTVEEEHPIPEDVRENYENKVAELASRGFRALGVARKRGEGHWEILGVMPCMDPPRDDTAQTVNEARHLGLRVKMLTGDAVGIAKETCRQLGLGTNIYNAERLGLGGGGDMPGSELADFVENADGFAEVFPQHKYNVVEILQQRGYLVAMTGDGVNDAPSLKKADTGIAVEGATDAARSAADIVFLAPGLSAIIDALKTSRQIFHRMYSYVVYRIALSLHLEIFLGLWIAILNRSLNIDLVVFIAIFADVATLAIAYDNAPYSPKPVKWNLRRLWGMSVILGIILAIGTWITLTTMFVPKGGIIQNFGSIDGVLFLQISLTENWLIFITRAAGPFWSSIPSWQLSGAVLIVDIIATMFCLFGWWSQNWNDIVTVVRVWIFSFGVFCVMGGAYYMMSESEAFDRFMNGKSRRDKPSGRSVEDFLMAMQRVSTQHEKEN
Nature of the data set: intrinsic Trp fluorescence quenching titration, Hill-type fit. It counts as binding.

Data set [2] has as its target T2, plasma membrane H^+-ATPase hexamer, aggregated (large MAS, Peak 1) (Kluyveromyces lactis, UniProt P49380).
T2 construct: gene PMA1; Superose 6 Peak 1, aggregated hexamers; monomer ~100 kDa; no tag
T2 sequence (P49380 1-899): T1 sequence (P49380 1-899)
The data set is described as above. It counts as binding.

Substrate in the data set “purified protein”: Nc1ncnc2c1ncn2[C@@H]1O[C@H](COP(=O)(O)OP(=O)(O)OP(=O)(O)O)[C@@H](O)[C@H]1O
Nature of the data set: purified protein. It counts as biochemical, Kluyveromyces lactis. The following applies: 25 °C, cooperative.

Data set [3] concerns the molecule itself. The experiment in a line: native gel or EMSA; BN-PAGE of SEC Peak 1 fractions (23-26); 4-15% gradient gel with 0.1 M trehalose; sample buffer 25 mM imidazole, 0.3 M trehalose, 0.25% DDM, 0.025% Coomassie blue, pH 7.0; 4 °C; silver stain.
Data set [4] concerns the molecule itself. Nature of the data set: native gel or EMSA; BN-PAGE of SEC Peak 2 fractions (33-37); 4-15% gradient gel with 0.1 M trehalose; sample buffer 25 mM imidazole, 0.3 M trehalose, 0.25% DDM, 0.025% Coomassie blue, pH 7.0; 4 °C; silver stain. Background: Mobility shift assays separate free from complexed probe on a gel.

What is called Kd is a measure of binding affinity in units of concentration. Higher therefore signals lower affinity. For `Nc1ncnc2c1ncn2[C@@H]1O[C@H](COP(=O)(O)OP(=O)(O)O)[C@@H](O)[C@H]1O` [ADP], the Kd in data set [1] is 190 ± 13.9 µM; in data set [2], 136 ± 7.8 µM.
In the case of `Nc1ncnc2c1ncn2[C@@H]1O[C@H](COP(=O)(O)OP(=O)(O)CP(=O)(O)O)[C@@H](O)[C@H]1O` [AMP-PCP], the dissociation constant Kd came out at 106 ± 12.6 µM in data set [1] and 73.3 ± 5.8 µM in data set [2].

B1: plasma membrane H^+-ATPase hexamer, aggregated (large MAS, Peak 1) (Kluyveromyces lactis NRRL Y-1140) (protein)
chain: T1 sequence (P49380 1-899)
notes: Superose 6 Peak 1, aggregated hexamers; monomer ~100 kDa; no tag
Regarding B1, the K0.5 in the data set “purified protein” (Hill n = 1.98 ± 0.21) came out at 329 ± 19 µM.

B2: plasma membrane H^+-ATPase from Kluyveromyces lactis (enzyme, UniProt P49380 1-899, looked up)
chain: T1 sequence (P49380 1-899)
notes: plasma membrane H^+-ATPase (Pma1) of Kluyveromyces lactis, endogenous enzyme; monomer band of ~100 kDa on SDS-PAGE; also called Pma1; H^+-ATPase hexamer; source: also in isolated plasma membranes treated with DDM
Usually stoichiometry N stands for the number of molecules, sites or subunits per partner or assembly. B2: the “stoichiometry N” value is 6 in data set [3]; 2 and 4 in data set [4].

B3: plasma membrane H^+-ATPase hexamer, free (small MAS, Peak 2) (Kluyveromyces lactis NRRL Y-1140) (protein)
chain: T1 sequence (P49380 1-899)
notes: Superose 6 Peak 2, mainly free hexamers with minor monomer, dimer, tetramer; monomer ~100 kDa; no tag
Turning to B3, the K0.5 in “purified protein” (Hill n = 1.82 ± 0.22) was determined as 364 ± 28 µM.

The values above are taken from PMC6429222, “The Oligomeric State of the Plasma Membrane H^+-ATPase from Kluyveromyces lactis” (Molecules, 2019).
